Assay results published in PMC4047164 (Biochimica et biophysica acta, 2014).
Converted amounts (≈) assume the structure as drawn. Where two headings read alike, the source gives them in different places.

Experiments:
S. aureus cells = assay: Membrane potential of intact cells by DisC3; type: cell-based
NdhC [1] = molecular target: T1, NdhC (Staphylococcus aureus, UniProt Q2YWP9); assay: Inhibition of purified NdhC NADH dehydrogenase activity with DMN in detergent; type: biochemical, S. aureus; conditions: read-out: % of Inhibition by 50 μM phenothiazines, NdhC, DMN
S. aureus [2] = assay: Drug susceptibility determination; type: cell-based; conditions: Staphylococcus aureus, 20 h
S. aureus [3] = conditions: cited from earlier work
[4] = tested on: inverted membrane vesicles from E. coli; type: biochemical
[5] = tested on: inverted membrane vesicles from E. coli; type: biochemical; conditions: NADH-energized vesicles
NdhC [6] = molecular target: T1, NdhC; assay: biochemical; design: species or system S. aureus; conditions: read-out: % of Inhibition by 50 μM phenothiazines, NdhC, Q8
S. aureus membranes = assay: NADH-driven respiration; type: biochemical; conditions: for Inhibition of NADH-dependent oxygen consumption: 50 μM compound, membranes ∼ 200 μg/ml
NdhF [7] = molecular target: T2, NdhF (Staphylococcus aureus, UniProt Q2FZW0); assay: biochemical; conditions: read-out: % of Inhibition by 50 μM phenothiazines, NdhF, Q8
NdhF [8] = molecular target: T2, NdhF; assay: biochemical; conditions: read-out: % of Inhibition by 50 μM phenothiazines, NdhF, DMN
[9] = tested on: isolated rat liver mitochondria; conditions: cited from earlier work
[10] = control agents, Figure S5, concentration not given
[11] = Figure 5 legend, concentration not given

T1 sequence (Q2YWP9 whole entry): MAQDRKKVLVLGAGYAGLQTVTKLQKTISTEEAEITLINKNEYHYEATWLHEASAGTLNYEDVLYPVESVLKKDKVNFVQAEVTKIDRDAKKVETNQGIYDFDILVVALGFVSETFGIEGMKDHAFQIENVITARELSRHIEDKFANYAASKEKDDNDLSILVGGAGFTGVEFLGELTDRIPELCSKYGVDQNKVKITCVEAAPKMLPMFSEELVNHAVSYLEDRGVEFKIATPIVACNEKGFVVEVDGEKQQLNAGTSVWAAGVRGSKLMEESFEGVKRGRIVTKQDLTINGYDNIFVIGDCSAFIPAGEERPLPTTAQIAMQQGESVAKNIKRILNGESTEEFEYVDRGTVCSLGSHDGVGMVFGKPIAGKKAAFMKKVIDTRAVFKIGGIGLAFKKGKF

Row | SMILES | inhibition at 50 µM (NdhC [1]) | MIC (S. aureus [2]) | reported MIC values for inhibition of growth (S. aureus [3]) | Effect on pH gradient (ACMA fluorescence) [4, 10] | Effect on membrane potential (Oxonol VI fluorescence) [5, 11] | Inhibition of NADH-dependent oxygen consumption (S. aureus membranes) | other results
1 | N#CC(C#N)=NNc1cccc(Cl)c1 [CCCP] | – | – | – | – | – | – | Effect on membrane potential (DisC3(5) fluorescence) (S. aureus cells; 1 μM CCCP, validation control): rapid collapse of the membrane potential
2 | CN(C)CCCN1c2ccccc2Sc2ccc(Cl)cc21 [CPZ, Chlorpromazine] | 73 ± 8% | 170 ± 15 µM (≈ 54.2 µg/mL) | 90 to 125 µM | – | – | – | –
3 | C(=NC1CCCCC1)=NC1CCCCC1 [DCCD] | – | – | – | collapse of the pH gradient | – | – | –
4 | CC(C)(C)c1cc(C=C(C#N)C#N)cc(C(C)(C)C)c1O [SF6847] | – | – | – | collapse of the pH gradient | dissipation of the membrane potential | – | –
5 | CN1CCN(CCCN2c3ccccc3Sc3ccc(C(F)(F)F)cc32)CC1 [TPZ, Trifluoperazine] | 54 ± 6% | 70 ± 10 µM (≈ 28.5 µg/mL) | 40 to 60 µM | – | – | fully inhibited | inhibition at 50 µM (NdhC [6]): 80 ± 10%; NADH-driven respiration in presence of 50 μM TPZ (S. aureus membranes; 50 μM TPZ, uninhibited activity 659 ± 28): 8 ± 1 μmole O2 mg^-1 protein s^-1; IC50 (S. aureus membranes; read-out: IC50, respiration of S. aureus membranes, NADH as electron donor): 18.5 ± 3 µM; inhibition at 50 µM (NdhF [7]): 0%; inhibition at 50 µM (NdhF [8]): 0%
6 | CSc1ccc2c(c1)N(CCC1CCCCN1C)c1ccccc1S2 (stereo not shown) [TZ, Thioridazine] | – | 70 ± 9 µM (≈ 25.9 µg/mL) | 40 to 60 µM | – | dissipation of the membrane potential | fully inhibited | Effect on membrane potential (DisC3(5) fluorescence) (S. aureus cells; 50 μM TZ): rapid collapse of the membrane potential; Effect on membrane potential (DisC3(5) fluorescence) (S. aureus cells; different TZ concentrations, immediate, concentration-dependent (Figure 3A)): collapse of the membrane potential; Effect on pH gradient (ACMA fluorescence) ([4]; 3 μM TZ, gradient generated by the ATPase or by succinate-driven respiration): completely collapse the pH gradient; Effect on membrane potential (Oxonol VI fluorescence) ([5]; 10 μM TZ): completely dissipated; Uncoupler activity [9]: weak uncoupler of oxidative phosphorylation
